Where “and” joins values, the source holds several entries; their conditions need not be identical. Equal values may be shown once.
Conditions: Liquid, Vibrating tube method

CCCCC(=O)OCC(COC(=O)CCCC)(COC(=O)CCCC)COC(=O)CCCC [pentaerythritol tetrapentanoate]
Conditions	mass density
283.14 K, 1387.6 kPa	1027.8 kg/m3
283.14 K, 1404.2 kPa	1027.9 kg/m3
283.14 K, 1537.6 kPa	1028 kg/m3
283.14 K, 1581.5 kPa	1028 kg/m3
283.14 K, 1602.2 kPa	1028 kg/m3
283.14 K, 7137 kPa	1031.3 kg/m3
283.14 K, 7155.5 kPa	1031.2 kg/m3
283.14 K, 7173.8 kPa	1031.2 kg/m3
283.14 K, 7196.4 kPa	1031.2 kg/m3
283.14 K, 7215.6 kPa	1031.3 kg/m3
283.14 K, 7545.3 kPa	1031.5 kg/m3
283.14 K, 7570.8 kPa	1031.5 kg/m3
283.14 K, 7613.2 kPa	1031.4 kg/m3
283.14 K, 7932.2 kPa	1031.7 kg/m3
283.14 K, 7959.6 kPa	1031.7 kg/m3
283.14 K, 7982.3 kPa	1031.7 kg/m3
283.14 K, 8033 kPa	1031.8 kg/m3
283.14 K, 8056.3 kPa	1031.7 kg/m3
283.14 K, 8103.7 kPa	1031.7 kg/m3
283.14 K, 8185.7 kPa	1031.9 kg/m3
283.14 K, 9062.7 kPa	1032.4 kg/m3
283.14 K, 9128.2 kPa	1032.3 kg/m3
283.14 K, 9352.3 kPa	1032.5 kg/m3
283.14 K, 9390.6 kPa	1032.6 kg/m3
283.14 K, 9422.3 kPa	1032.5 kg/m3
283.14 K, 9460.6 kPa	1032.5 kg/m3
283.14 K, 9493.3 kPa	1032.5 kg/m3
283.14 K, 9525.9 kPa	1032.5 kg/m3
283.14 K, 9558.8 kPa	1032.6 kg/m3
283.14 K, 10081 kPa	1032.9 kg/m3
283.14 K, 10162 kPa	1032.9 kg/m3
283.14 K, 11953 kPa	1034 kg/m3
283.15 K, 105.8 kPa	1027.1 kg/m3
283.15 K, 106 kPa	1027.1 kg/m3 and 1027.2 kg/m3
283.15 K, 106.2 kPa	1027.2 kg/m3 and 1027.1 kg/m3 and 1027 kg/m3
283.15 K, 106.3 kPa	1027.2 kg/m3
283.15 K, 106.7 kPa	1027.2 kg/m3
283.15 K, 107.6 kPa	1027.1 kg/m3
283.15 K, 108.1 kPa	1027.1 kg/m3
283.15 K, 109.5 kPa	1027 kg/m3
283.15 K, 111.9 kPa	1027.2 kg/m3
283.15 K, 117.3 kPa	1027.1 kg/m3
283.15 K, 124.3 kPa	1027.1 kg/m3
283.15 K, 130.2 kPa	1027.2 kg/m3
283.15 K, 135 kPa	1027.1 kg/m3
283.15 K, 140.8 kPa	1027.1 kg/m3
283.15 K, 147.2 kPa	1027.1 kg/m3
283.15 K, 154.9 kPa	1027.1 kg/m3
283.15 K, 163.9 kPa	1027.1 kg/m3
283.15 K, 178 kPa	1027.2 kg/m3
283.15 K, 192.4 kPa	1027.1 kg/m3
283.15 K, 213.6 kPa	1027.1 kg/m3
283.15 K, 233.4 kPa	1027.1 kg/m3
283.15 K, 247.7 kPa	1027.2 kg/m3
283.15 K, 264 kPa	1027.2 kg/m3
283.15 K, 279.7 kPa	1027.1 kg/m3
283.15 K, 296.5 kPa	1027.1 kg/m3
283.15 K, 313.2 kPa	1027.2 kg/m3
283.15 K, 332 kPa	1027.2 kg/m3
283.15 K, 349 kPa	1027.3 kg/m3
283.15 K, 368.1 kPa	1027.2 kg/m3
283.15 K, 391.4 kPa	1027.3 kg/m3
283.15 K, 406.5 kPa	1027.2 kg/m3
283.15 K, 423.1 kPa	1027.4 kg/m3
283.15 K, 437.7 kPa	1027.3 kg/m3
283.15 K, 452.6 kPa	1027.3 kg/m3
283.15 K, 469.3 kPa	1027.3 kg/m3
283.15 K, 482.3 kPa	1027.4 kg/m3
283.15 K, 495.9 kPa	1027.3 kg/m3
283.15 K, 512.7 kPa	1027.3 kg/m3
283.15 K, 528.4 kPa	1027.4 kg/m3
283.15 K, 544.4 kPa	1027.4 kg/m3
283.15 K, 563 kPa	1027.2 kg/m3
283.15 K, 579.3 kPa	1027.3 kg/m3
283.15 K, 596.9 kPa	1027.5 kg/m3
283.15 K, 618.9 kPa	1027.3 kg/m3
283.15 K, 638.7 kPa	1027.4 kg/m3
283.15 K, 659.6 kPa	1027.5 kg/m3
283.15 K, 682 kPa	1027.5 kg/m3
283.15 K, 710.3 kPa	1027.4 kg/m3
283.15 K, 735.2 kPa	1027.6 kg/m3
283.15 K, 767.3 kPa	1027.5 kg/m3
283.15 K, 795.3 kPa	1027.5 kg/m3
283.15 K, 819.4 kPa	1027.5 kg/m3
283.15 K, 839.6 kPa	1027.6 kg/m3
283.15 K, 865.5 kPa	1027.6 kg/m3
283.15 K, 888.6 kPa	1027.5 kg/m3
283.15 K, 912.5 kPa	1027.6 kg/m3
283.15 K, 938.4 kPa	1027.7 kg/m3
283.15 K, 969.9 kPa	1027.6 kg/m3
283.15 K, 997.3 kPa	1027.6 kg/m3
283.15 K, 1027 kPa	1027.7 kg/m3
283.15 K, 1064.4 kPa	1027.7 kg/m3
283.15 K, 1096.7 kPa	1027.7 kg/m3
283.15 K, 1131.3 kPa	1027.7 kg/m3
283.15 K, 1175 kPa	1027.7 kg/m3
283.15 K, 1212.2 kPa	1027.8 kg/m3
283.15 K, 1243.1 kPa	1027.7 kg/m3
283.15 K, 1258.2 kPa	1027.8 kg/m3
283.15 K, 1275 kPa	1027.8 kg/m3
283.15 K, 1289.5 kPa	1027.7 kg/m3
283.15 K, 1304.2 kPa	1027.8 kg/m3
283.15 K, 1321.8 kPa	1027.8 kg/m3
283.15 K, 1336.7 kPa	1027.8 kg/m3
283.15 K, 1351.8 kPa	1027.9 kg/m3
283.15 K, 1371.1 kPa	1027.9 kg/m3
283.15 K, 1421.6 kPa	1027.8 kg/m3
283.15 K, 1442.1 kPa	1027.9 kg/m3
283.15 K, 1459.8 kPa	1027.9 kg/m3
283.15 K, 1477.5 kPa	1027.9 kg/m3
283.15 K, 1499.7 kPa	1027.9 kg/m3
283.15 K, 1518.7 kPa	1027.9 kg/m3
283.15 K, 1561.4 kPa	1027.9 kg/m3
283.15 K, 1627.3 kPa	1028.1 kg/m3
283.15 K, 1648.9 kPa	1028.1 kg/m3
283.15 K, 1671.6 kPa	1028 kg/m3
283.15 K, 1695.7 kPa	1028 kg/m3
283.15 K, 1719.2 kPa	1028.1 kg/m3
283.15 K, 1748.3 kPa	1028.1 kg/m3
283.15 K, 1772.8 kPa	1028 kg/m3
283.15 K, 1798.3 kPa	1028 kg/m3
283.15 K, 1824.2 kPa	1028.1 kg/m3
283.15 K, 1856.3 kPa	1028.2 kg/m3
283.15 K, 1883 kPa	1028.2 kg/m3
283.15 K, 1911.7 kPa	1028.1 kg/m3
283.15 K, 1940.6 kPa	1028.2 kg/m3
283.15 K, 1976.1 kPa	1028.2 kg/m3
283.15 K, 2006.6 kPa	1028.2 kg/m3
283.15 K, 2039.2 kPa	1028.3 kg/m3
283.15 K, 2073.9 kPa	1028.3 kg/m3
283.15 K, 2114 kPa	1028.3 kg/m3
283.15 K, 2165.9 kPa	1028.3 kg/m3
283.15 K, 2243 kPa	1028.4 kg/m3
283.15 K, 2290.5 kPa	1028.4 kg/m3
283.15 K, 2304.2 kPa	1028.4 kg/m3
283.15 K, 2315.5 kPa	1028.5 kg/m3
283.15 K, 2325.4 kPa	1028.5 kg/m3
283.15 K, 2335.1 kPa	1028.5 kg/m3
283.15 K, 2345 kPa	1028.4 kg/m3
283.15 K, 2356.8 kPa	1028.4 kg/m3
283.15 K, 2367 kPa	1028.5 kg/m3
283.15 K, 2376.9 kPa	1028.5 kg/m3
283.15 K, 2387.1 kPa	1028.5 kg/m3
283.15 K, 2399.6 kPa	1028.4 kg/m3
283.15 K, 2409.9 kPa	1028.5 kg/m3
283.15 K, 2419.9 kPa	1028.6 kg/m3
283.15 K, 2432.6 kPa	1028.5 kg/m3
283.15 K, 2443.2 kPa	1028.4 kg/m3
283.15 K, 2453.4 kPa	1028.5 kg/m3
283.15 K, 2464 kPa	1028.6 kg/m3
283.15 K, 2476.8 kPa	1028.5 kg/m3
283.15 K, 2487.6 kPa	1028.7 kg/m3
283.15 K, 2498.3 kPa	1028.4 kg/m3
283.15 K, 2511.9 kPa	1028.5 kg/m3
283.15 K, 2523 kPa	1028.4 kg/m3
283.15 K, 2534.1 kPa	1028.6 kg/m3
283.15 K, 2545.9 kPa	1028.6 kg/m3
283.15 K, 2559.4 kPa	1028.6 kg/m3
283.15 K, 2570.3 kPa	1028.6 kg/m3
283.15 K, 2581.9 kPa	1028.6 kg/m3

Reference: the NIST ThermoML archive (doi:10.1021/je060271a)
